Among the test systems are SK-MEL-2 melanoma; HOP-62 NSCLC; HS 578T breast; NCI-H226 lung; NCI-H460 lung; DU-145 prostate; SK-MEL-5 melanoma; IGROV1 ovarian; NCI-H23 lung; BT-549 breast.
Holding throughout (assay): DTP human tumour cell line panel, 48 h

“And” between values parts separate entries of the source, which are not always exact repeats. Equal entries are not always repeated.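 All cell lines were grown in 96-well plates and treated with compound for 48 hours. GI50: concentration for 50% inhibition of growth. TGI marks complete inhibition of growth.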 Some results are limits rather than exact numbers.

As for `COc1cc(OC)c(OC)cc1/C=N/N=C(\N)NO`, the TGI in the assay on SK-MEL-2 melanoma, in the assay with HOP-62 NSCLC, in the assay with HS 578T breast, with NCI-H226 lung, with NCI-H460 lung and in the assay on DU-145 prostate was > 100 µM in each case. In addition, the TGI in the assay with SK-MEL-5 melanoma, in the assay on IGROV1 ovarian and in the assay with NCI-H23 lung was > 100 µM in each case.
Turning to `O=C(Cn1c2c(c3ccccc31)CCCC2)NC1CCCCC1`, the TGI in the assay with SK-MEL-2 melanoma, in the assay on HOP-62 NSCLC, in the assay with HS 578T breast, in the assay with NCI-H460 lung, with BT-549 breast and with SK-MEL-5 melanoma was > 100 µM throughout. The total growth inhibition concentration (TGI) with IGROV1 ovarian and with NCI-H23 lung was > 100 µM in each case.
For the compound `CC1C(c2ccccc2)OP(=O)(OC(C#N)c2ccccc2)N1C` (configuration not stated), the concentration for total growth inhibition (TGI) in the assay on SK-MEL-2 melanoma, with HOP-62 NSCLC, with HS 578T breast, in the assay with NCI-H460 lung, with BT-549 breast and in the assay with DU-145 prostate was > 100 µM each time. The concentration for total growth inhibition (TGI) in the assay with SK-MEL-5 melanoma, in the assay with IGROV1 ovarian and in the assay on NCI-H23 lung was > 100 µM each time.
Regarding `N#Cc1c(N)oc(-c2cccc([N+](=O)[O-])c2)c1C#N`, the total growth inhibition concentration (TGI) – broadly, the concentration giving total growth inhibition – with SK-MEL-2 melanoma was > 100 µM; in the assay on HS 578T breast it was > 100 µM; with NCI-H226 lung, > 100 µM; in the assay on DU-145 prostate it was > 100 µM; in the assay on SK-MEL-5 melanoma, 37.7 µM; with IGROV1 ovarian it was 65.3 µM. This compound also yielded a total growth inhibition concentration (TGI) with NCI-H23 lung of 44 µM.
Take `COC(=O)C1=CSC2(S1)C(C(=O)OC)=CSc1c2ssc1=Nc1ccccc1` (configuration not stated): the total growth inhibition concentration (TGI) in the assay with SK-MEL-2 melanoma is 7.36 µM; in the assay on HOP-62 NSCLC, 8.67 µM; in the assay on HS 578T breast, 8.34 µM; in the assay with NCI-H460 lung, > 100 µM; in the assay with BT-549 breast, 22.6 µM; in the assay with DU-145 prostate, 16.2 µM. Further, the TGI is 9.07 µM in the assay on SK-MEL-5 melanoma, 4.83 µM in the assay with IGROV1 ovarian and 8.43 µM in the assay on NCI-H23 lung.
As for `COc1cc2cc(C(=O)N3CC(CCl)c4ccc(O)cc43)[nH]c2c(OC)c1OC` (configuration not stated), the TGI with SK-MEL-2 melanoma was 0.00468 µM; in the assay with HS 578T breast it was 0.0588 µM; in the assay with NCI-H226 lung, 0.0566 µM and 0.471 µM; in the assay on DU-145 prostate, 0.661 µM; in the assay with SK-MEL-5 melanoma, 0.000396 µM; in the assay on NCI-H23 lung, 0.812 µM. In the assay with NCI-H226 lung, the 50% growth inhibitory concentration (GI50) (in general, the concentration that inhibits growth by half) is 0.116 µM.
For `COC(=O)[C@@H]1CN(C(=O)CCc2ccccc2)C(=O)N1C(=O)OCc1ccccc1`, the TGI with SK-MEL-2 melanoma, with HOP-62 NSCLC, in the assay on HS 578T breast, with NCI-H226 lung, in the assay on NCI-H460 lung and in the assay on DU-145 prostate was > 100 µM in each case. Moreover, the TGI in the assay on SK-MEL-5 melanoma, in the assay on IGROV1 ovarian and in the assay on NCI-H23 lung was > 100 µM in each case.
For the compound `O=c1cc(-c2ccccc2)[nH]c2cc(O)ccc12`, the TGI in the assay on SK-MEL-2 melanoma was 94.9 µM; with HOP-62 NSCLC it was 70.9 µM; in the assay with NCI-H226 lung it was > 100 µM; with NCI-H460 lung, 33.3 µM; in the assay with SK-MEL-5 melanoma, 83.4 µM; with IGROV1 ovarian it was 65.6 µM. The same compound had a TGI in the assay with NCI-H23 lung of 87.6 µM.
Take `CN(CCO)c1nc2c(c(=O)[nH]1)CCC2`: the TGI with SK-MEL-2 melanoma, with HOP-62 NSCLC, in the assay on NCI-H226 lung, with NCI-H460 lung, with SK-MEL-5 melanoma and in the assay on IGROV1 ovarian was > 100 µM in each case. In addition, in the assay on NCI-H23 lung, the TGI is > 100 µM.
Take `COc1ccc2[nH]c3c(c2c1)CCn1c-3nc2ccccc2c1=O`: the total growth inhibition concentration (TGI) in the assay with HOP-62 NSCLC, in the assay on HS 578T breast, with NCI-H460 lung, in the assay with SK-MEL-5 melanoma and in the assay on IGROV1 ovarian was > 25 µM in each case.
For the compound `O=C1C2CC=CCC2C(=O)N1n1c(-c2ccccc2)n[nH]c1=O` (configuration not stated), the TGI in the assay with SK-MEL-2 melanoma, in the assay with HOP-62 NSCLC, in the assay with HS 578T breast, in the assay with NCI-H226 lung, in the assay on NCI-H460 lung and with BT-549 breast was > 100 µM in each case. In addition, the TGI with SK-MEL-5 melanoma, in the assay with IGROV1 ovarian and with NCI-H23 lung was > 100 µM each time.
As to `COc1cc2c(c(OC)c1OC)C(=O)[C@H](O)[C@H]2NC(N)=O`, the concentration for total growth inhibition (TGI) in the assay on HOP-62 NSCLC, in the assay on HS 578T breast, with NCI-H226 lung, in the assay on NCI-H460 lung, in the assay with DU-145 prostate and in the assay on SK-MEL-5 melanoma was > 100 µM each time. The TGI in the assay on IGROV1 ovarian and in the assay on NCI-H23 lung was > 100 µM in each case.
`CNC(=O)N1CN(c2ccccc2)C2(CCN(CCCC(=O)c3ccc(F)cc3)CC2)C1=O`: the concentration for total growth inhibition (TGI) in the assay on HOP-62 NSCLC was 22.8 µM; with NCI-H226 lung it was 79.4 µM; in the assay with DU-145 prostate, > 100 µM; with SK-MEL-5 melanoma, 26.7 µM; with IGROV1 ovarian, 89.1 µM; in the assay on NCI-H23 lung it was 87.5 µM.
For the compound `CCOC1(COP(=O)(OCc2ccccc2)OCc2ccccc2)COC(COP(=O)(OCc2ccccc2)OCc2ccccc2)(OCC)CO1` (configuration not stated), the TGI with SK-MEL-2 melanoma, in the assay on HOP-62 NSCLC, in the assay on NCI-H226 lung, in the assay on NCI-H460 lung, with SK-MEL-5 melanoma and in the assay with IGROV1 ovarian was > 100 µM in each case. In the assay on NCI-H23 lung, the concentration for total growth inhibition (TGI) is > 100 µM.
With `CC(=O)C1=CSC2[C@H](NC(=O)Cc3ccccc3)C(=O)N2C1C(=O)OC(c1ccccc1)c1ccccc1` (some centres not stated), the TGI in the assay with SK-MEL-2 melanoma, with HOP-62 NSCLC, with NCI-H226 lung, in the assay with SK-MEL-5 melanoma, with IGROV1 ovarian and with NCI-H23 lung was > 100 µM throughout.
As for `CC(=O)Nc1ccccc1SCCSSCCSc1ccccc1NC(C)=O`, the TGI in the assay with SK-MEL-2 melanoma is 86.5 µM; with HOP-62 NSCLC it was > 100 µM; in the assay with NCI-H226 lung, 81.8 µM; in the assay with NCI-H460 lung, 68.6 µM; in the assay on BT-549 breast, > 100 µM; in the assay with DU-145 prostate it was 88.7 µM. Further, the TGI in the assay on SK-MEL-5 melanoma was > 100 µM; with IGROV1 ovarian, 46.8 µM; with NCI-H23 lung it was 83.9 µM.

The values above are taken from PubChem BioAssay (NCI).
